Test system: platelets (arachidonic acid-induced platelet aggregation)
Assay: Arachidonic acid-induced platelet aggregation in platelet-rich plasma
Assay type: cell-based, New Zealand rabbit
Settings: 30 μM; arachidonic acid 100 μM; rabbit platelet-rich plasma
Description: The inhibitory effect of hypoestoxides according to the present invention on platelet aggregation was studied. Platelet-rich plasma from a New Zealand rabbit was used as the source of platelets. Arachidonic acid (100 μM) was used to induce maximal platelet aggregation in vitro. Optical density of aggregation was measured by densitometry.

SMILES: C=C1C(=O)C[C@H]2C[C@@H]3O[C@@]3(C)CC[C@@H]3O[C@@]3(C)C[C@@H](OC(C)=O)[C@H]1C2(C)C [Hypoestoxide, hypoestoxide]
- % Inhibition of arachidonic acid-induced platelet aggregation: 100%
